The experiment deals with P. falciparum 3D7 growth, pLDH absorbance. Put plainly: P. falciparum 3D7 growth inhibition, dose response, strain 3D7 (AID 2305).

pIC50: −log10 of the molar value. Where “and” joins values, the source holds several entries; their conditions need not be identical. Equal values may be shown once.

As to `COc1ccc(CNCc2ccc(-c3ccc(-c4nc5ccc(C(F)(F)F)cc5[nH]4)cc3)cc2)cc1`, the pIC50 (as a rule, the negative decadic logarithm of the IC50, by convention in mol/L) is 6.89.
With `O=c1cc(NCCCNCc2cccc(C(F)(F)F)c2Cl)[nH]c2ccccc12` the figure was 6.10; with `CCN1CCN(c2cc(C)c3cc(NC(=O)c4ccc(OC)c([N+](=O)[O-])c4)ccc3n2)CC1`, 6.26.
The molecule `CC1(C)CC(=O)c2c(O)cc(OCc3ccncc3)cc2O1` showed a pIC50 of 5.98.
The same measure for `COc1cccc(C(C)(C)NC[C@@H](O)[C@H](Cc2ccccc2)NC(=O)c2cc(C3CCCC3)cc(N3CCCCS3(=O)=O)c2F)c1`: 7.52.
`O=C(NC1CC1)c1ccc(N2CCN(Cc3ccc(Cl)cc3)CC2)nc1` had a negative-log IC50 (pIC50) of 5.87.
Consider `Cc1[nH]c2ccc(O)cc2c1C1CCN(CC2CCC(NC(=O)/C=C/c3c(Cl)cccc3Cl)CC2)CC1` (configuration not stated), for which the negative-log IC50 (pIC50) was 6.09. Compared with the last molecule, the pIC50 is 0.22 log units higher.
`CCCCNC(=O)c1[nH]c2c(NC(=O)COc3ccccc3)cccc2c1-c1cccc(NC(=O)C(N)CO)c1` (configuration not stated) showed a negative-log IC50 (pIC50) of 6.07.
The molecule `CCN(CCNC(=O)Cn1c(C)cc2cc([N+](=O)[O-])ccc21)c1cccc(C)c1` had a pIC50 of 6.00.
In turn, `O=C(COc1ccc(C(=O)c2ccccc2)cc1)Nc1nccs1` showed a negative logarithm of the IC50 (pIC50) of 6.05.
`O=C(NCC1CN(Cc2ccc(N3CCCC3)o2)CCCO1)c1ccc2c(c1)OCO2` (configuration not stated) had a pIC50 of 6.08.
On to `NC(=NCCc1ccc(Cl)c(Cl)c1)c1ccc2ccccc2c1`, for which the pIC50 was 6.29.
With `Cn1nc(-c2cccc(CNCc3ccccc3)c2)c2cnc(NC3CCCC3)nc21` the figure was 5.90.
With `Cc1cccc(OC(C)C(=O)Nc2cc(C(F)(F)F)ccc2N2CCOCC2)c1` (configuration not stated) the figure was 6.62; with `NC1=NC(c2ccccc2)(c2ccccc2)C(=O)N1CCOc1ccccc1`, 6.08.
With `C=CCn1c(Sc2ccc(C#N)c([N+](=O)[O-])c2)nnc1-c1cc(OC)cc(OC)c1` the figure was 6.36; with `O=C(/C=C/c1ccccc1Cl)Nc1ccc(Br)c(OCCN2CCCCC2)c1`, 6.77; with `COc1ccccc1N1CCN(C(C(=O)NCc2ccc(C)cc2)c2ccc(C)cc2)CC1` (configuration not stated), 6.03.
The molecule `CCOc1ccc2nc(C)cc(NN=Cc3cccnc3)c2c1` gave a pIC50 of 6.82.
With `Cc1nc2ccc(NC(=O)c3cc(S(=O)(=O)N(C)C)ccc3Cl)cc2s1` the figure was 6.09; with `CC(C)c1ccc(NC(=O)c2ccc(C(=O)NCC3CCN(CC4CCCCC4)CC3)cc2)cc1`, 6.05.
For `COc1ccccc1CNC(=O)c1nn(-c2ccc(Cl)cc2)c(=O)c2ccccc12`, the pIC50 was 6.54.
For `CN(C)c1nc2cc(-n3cnc4cc(-c5ccc(Cl)cc5)sc4c3=O)ccc2n1CCCN1CCCCC1`, the negative logarithm of the IC50 (pIC50) was 6.08.
The same measure for `Cc1ccc(-c2nc3ccc(C(=O)NC4CCN(Cc5ccccc5)CC4)cc3[nH]2)cc1`: 6.13; for `CNCCNCc1ccc(-c2cccc(-c3nc4ccc(F)cc4[nH]3)c2)cc1`: 5.95; for `CCCCCCN1CCCN(Cc2cccc(NC(=O)c3cc4ccccc4s3)c2)CC1`: 6.18.
On to `Cc1ccccc1C1CCN(C2CCC(NC(=O)/C=C/c3cc(F)cc(F)c3)CC2)CC1` (configuration not stated), for which the pIC50 was 6.08.
With `COc1cccc(C(O)CNc2ccnc(Nc3cccc(-c4csc(C)n4)c3)n2)c1` (configuration not stated) the figure was 6.10; with `CC1(C)[C@H]2CC[C@@H](CNc3nc(NCC(=O)Nc4ccc5ccccc5c4)nc(N4CCC(N5CCCC5)CC4)n3)[C@@H]1C2`, 5.92; with `OCc1c(Cl)cc(Cl)cc1CNCCCNc1nc2ccccc2[nH]1`, 6.13.
For the molecule `COc1c(OC)c(OC)c2ccccc2c1CNCCCCCCNCc1c(OC)c(OC)c(OC)c2ccccc12`, the negative logarithm of the IC50 (pIC50) was 6.12.
As for `CN1CCC(COc2ccc(CN3CCC(NC(=O)c4cccc(Cl)c4)CC3)cc2)CC1`, the pIC50 is 6.05.
With `CC(C)c1ccc(NC(=O)c2cccc(CN3CCCN(Cc4cccc(O)c4)CC3)c2)cc1` the figure was 6.11; with `O=c1[nH]c(NCCCCCN2CCC(c3c[nH]c4ccccc34)CC2)ncc1Cc1ccc(Cl)c(Cl)c1`, 6.01; with `CC(C)NCc1ccc(-c2ccc(-c3nc4ccc(C(F)(F)F)cc4[nH]3)s2)cc1`, 6.74.
The same measure for `COc1cc(NC(=O)Nc2ccnc3ccccc23)cc(OC)c1`: 6.33; for `CCC1(C)N=C(N)N=C(N)N1c1ccccc1` (configuration not stated): 6.10; for `COc1ccc(NC(=O)N2CCCN(CCCCCNC(=O)/C=C/c3ccc(Cl)cc3)CC2)cc1Cl`: 6.09.
In turn, `CS(=O)(=O)c1ccc2nc(-c3cc(-c4ccc(OCCN5CCOCC5)cc4)cnc3N)[nH]c2c1` had a pIC50 of 5.97. This pIC50 and that of the molecule before are within 0.2 log units of each other.
The same measure for `O=C(NCCCCN1CCCC2c3ccc(O)cc3CCC21)c1ccc(-c2ccccc2)cc1` (configuration not stated): 6.14 and 6.03.
Turning to `CN(C)Cc1ccc(CN2CCN(CCOc3ccc(-c4ccc(Cl)cc4)cc3)CC2)o1`, the pIC50 was 5.99.
As to `Cc1cc(NCCc2ccccc2)nc(/N=C(\N)Nc2cccc([N+](=O)[O-])c2)n1`, the pIC50 is 6.85.
Molecule `CN(c1ccccc1)c1ccnc(/N=C(\N)Nc2ccc(Cl)cc2)n1` showed a negative logarithm of the IC50 (pIC50) of 5.96.
For `CCOC(=O)c1ccc(NC(=O)Nc2ccc(-c3cccc(-c4nc5ccccc5[nH]4)c3)cc2)cc1`, the negative-log IC50 (pIC50) is 6.85.
With `O=C(NCCCCCN1CCC(c2c[nH]c3ccccc23)CC1)Nc1cccc(C(F)(F)F)c1` the figure was 6.00; with `Cc1ccc(Cc2c(N)nc3nc(N)nc(N)c3c2C)cc1`, 6.72.
Regarding `CC(CCc1ccccc1)NCC(O)c1ccc2c3c(cccc13)S(=O)(=O)N2C` (configuration not stated), the pIC50 is 6.20.
Consider `CS(=O)(=O)Nc1ccc2[nH]cc(C3C[C@H]4CC[C@@H](C3)N4CC3CCC(NC(=O)/C=C/c4ccc(Cl)c(Cl)c4)CC3)c2c1` (some centres not stated), for which the pIC50 was 6.06.
Molecule `COc1ccc(-c2nc(NCc3ccccc3)c3cc(OC)c(OC)cc3n2)cc1` had a pIC50 of 6.40.
The same measure for `Cn1c(NC(=O)CCCCCNC(=O)c2ccc(O)c(-c3ccc(Cl)c(Cl)c3)c2)nc2ccccc21`: 6.14; for `CC(Oc1ccc(NC(=O)c2cccs2)cc1)C(=O)c1ccc(Cl)cc1` (configuration not stated): 6.11.
The same measure for `O=C(N[C@H]1CCN(Cc2ccc(OC3CCN(Cc4ccccc4)CC3)cc2)C1)c1ccc(Cl)c(Cl)c1`: 6.14.
With `O=[N+]([O-])c1cccc(NC(=S)N2CCCN(Cc3ccc(F)cc3F)CC2)c1` the figure was 6.08; with `NC(=O)c1ccc(-c2ccc3ccnc(N)c3c2)cc1`, 6.38; with `Cc1cccc2[nH]c(-c3cccc(-c4ccc(NC(=O)C5CCN(C)CC5)cc4)c3)nc12`, 6.08.
In turn, `CN(C)c1ccc(C2(c3ccccc3)N=C(N)N(CCCc3ccccc3)C2=O)cc1` (configuration not stated) gave a pIC50 of 6.01. This pIC50 and that of the molecule before are within 0.2 log units of each other.
Molecule `Cc1cccc2[nH]c(-c3ccc(-c4cccc(CNC(C)C)c4)s3)nc12` gave a pIC50 of 6.64.
Turning to `CC1=C(C(=O)OC(C)C)C(c2ccccc2Cl)C2=C(CC(c3ccccc3)CC2=O)N1` (configuration not stated), the negative-log IC50 (pIC50) is 6.07.
In turn, `CC(C)(CNC(=O)[C@@H]1CCCN(Cc2ccc(Cl)cc2)C1)c1nc(-c2ccc(Cl)c(O)c2)c(-c2ccncc2)[nH]1` gave a pIC50 of 6.03.
The same measure for `CCOc1cc(C(=O)N[C@@H](Cc2ccccc2)[C@H](O)CNCc2cc(OC)cc(OC)c2)cc(N2CCCC2=O)c1`: 6.07; for `Clc1ccc(-c2ccc(C=NNc3nc(Nc4ccccc4)nc(Nc4ccccc4)n3)o2)cc1Cl`: 6.13; for `CCCCNC(=O)[C@@H]1CCCN1C(=O)c1ccc(O)c(-c2ccc(Cl)c(Cl)c2)c1`: 6.12.
The same measure for `CCn1ncc(Cl)c1CN(C)S(=O)(=O)c1ccc(Br)cc1`: 5.99; for `CCOC(=O)NCC(=O)Nc1cccc(-c2cccc(-c3nc4ccc(C(F)(F)F)cc4[nH]3)c2)c1`: 6.20; for `Nc1c(Cl)cc(C(O)CNCCCCCOCCc2ccc3occc3c2)cc1Cl` (configuration not stated): 6.16.
With `CN1CCC(N(C)c2nccc(N3CCN(Cc4cncn4Cc4ccccc4)CC3)n2)CC1` the figure was 6.15; with `O=C(NC1CCCCC1)N(Cc1cccc(-c2ccc(CNC3CCCC3)cc2)c1)C1CCN(Cc2ccccc2)CC1`, 6.02; with `CCOc1cc2ncnc(Nc3cc(Cl)c(Cl)c(Cl)c3)c2cc1OCC`, 6.70.
Consider `Cc1ccc(NC(=O)c2ccc(NCCCN3CC(C)CC(C)C3)c([N+](=O)[O-])c2)cc1F` (configuration not stated), for which the pIC50 is 6.15.
With `O=C(/C=C/c1ccc(Cl)cc1)Nc1ccc2nc(CN3CCCC3)ccc2c1` the figure was 7.10.
Turning to `CCNc1cc(C(=O)N[C@@H](Cc2ccccc2)[C@H](O)CNC23CC4CC(CC(C4)C2)C3)cc(N2CCCCS2(=O)=O)c1`, the pIC50 is 6.66.
With `O=S(=O)(Nc1cc2c(cc1O)CCN(C1CCC1)CC2)c1ccc(-c2ccc(F)cc2)cc1` the figure was 6.38; with `Fc1ccc(C=NNc2ccnc3ccc(C(F)(F)F)cc23)cc1`, 5.96.
Take `COc1ccc2nccc([C@@H](O)CN3CCC(NC(=O)C(c4ccsc4)N4CCN(c5ccccc5)CC4)CC3)c2c1` (some centres not stated): the pIC50 is 6.36. Compared with the last molecule, the pIC50 is 0.40 log units higher.
With `O=C(/C=C/c1ccc(Cl)c(Cl)c1)NCCCCCN1CCC(NS(=O)(=O)c2cc(Cl)cc(Cl)c2)CC1` the figure was 5.91; with `Cc1ccccc1OCC(=O)Nc1ccc(-c2nc3cc4ccccc4cc3[nH]2)cc1`, 6.12; with `COCCNCc1ccc(-c2ccccc2CNC2CCN(Cc3ccccc3)CC2)cc1`, 6.01.
Turning to `COc1cccc2c(NN=Cc3ccccc3[N+](=O)[O-])ccnc12`, the negative-log IC50 (pIC50) was 6.23.
The same measure for `O=C(/C=C/c1ccc(Cl)c(Cl)c1)NCCCCCN1CCC(NC(=O)Nc2ccc(Cl)cc2F)CC1`: 6.51.
On to `CS(=O)(=O)CCNCc1cccc(-c2ccc3c(Nc4ccc(Oc5ccccc5)cc4)ccnc3c2)c1`, for which the pIC50 was 6.16.
With `CCCC(=O)NC(c1cccs1)c1cc(Cl)c2cccnc2c1O` (configuration not stated) the figure was 6.07.
Consider `FC(F)(F)c1ccc2nc(-c3ccc(-c4ccc(CNCC5CCCO5)cc4)s3)[nH]c2c1` (configuration not stated), for which the pIC50 was 6.80.
In the case of `Cc1nn(-c2ccnc3cc(Cl)ccc23)c(C)c1C(=O)NCc1cc(Cl)cc(Cl)c1`, the pIC50 was 6.06.
With `O=C(Nc1cccc(CN2CCCN(Cc3ccc(F)cc3)CC2)c1)c1cc2ccccc2s1` the figure was 6.10; with `Cc1cc(OCCCN2CCC(NS(=O)(=O)c3cc(Br)c(Cl)s3)CC2)c2ccccc2n1`, 6.07.
With `O=C(Nc1cccc(OC2CCN(Cc3ccccc3)CC2)c1)c1ccc(Cl)c(Cl)c1` the figure was 6.14; with `O=C(Nc1ccc(-c2cccc(-c3nc4ccccc4[nH]3)c2)cc1)Nc1ccsc1`, 6.60.

These data come from PubChem BioAssay AID2305 (GlaxoSmithKline (GSK), 2010).
